This passage reports TGI results from PubChem BioAssay (NCI).

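Dose response: 5 concentrations. Exposure: 48 h. Format: 96-well plates. Endpoint: linear interpolation; highest concentration if not reached. TGI marks complete inhibition of growth.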

Holding throughout (test): NCI anticancer screen, dose series, 48 h
Experiment [1] relates to LOX IMVI melanoma.
Experiment [2] concerns SF-539 CNS.
Experiment [3] concerns HL-60(TB) leukemia.
Experiment [4] relates to CAKI-1 renal.
The subject of experiment [5] is RPMI-8226 leukemia.
Experiment [6] has as its system DU-145 prostate.
The subject of experiment [7] is SK-MEL-2 melanoma.
Experiment [8] has as its system SW-620 colon.
The test system of experiment [9] is A498 renal.
Experiment [10] relates to OVCAR-4 ovarian.
Experiment [11] deals with HS 578T breast.

Regarding `COc1cc(NC(C)=O)ccc1C(=O)NN1C(=O)C(Cl)C1c1ccco1` (stereo not drawn), the TGI in experiment [1], in experiment [2], in [3], in [4], in experiment [5] and in experiment [6] was above 100 µM throughout. Besides, the TGI in experiment [7], in experiment [8], in experiment [9] and in [10] was above 100 µM in each case.
For `COc1ccc(C2Oc3cc(OC)c(O)c(C)c3[C@H]2C)cc1` (stereo partly drawn), the TGI is above 100 µM in experiment [1]; above 100 µM in [2]; 76.7 µM in experiment [3]; above 100 µM in [4]; above 100 µM in experiment [7]; above 100 µM in experiment [8]. In addition, the TGI in experiment [9] and in experiment [10] was above 100 µM in each case.
As for `c1ccc(C2=NOC3(c4ccccc4)SC4CCCCC4CN23)cc1` (stereo not drawn), the TGI is 34 µM in experiment [1]; 39.2 µM in experiment [2]; above 100 µM in experiment [3]; 63.8 µM in experiment [4]; 95.4 µM in experiment [5]; above 100 µM in experiment [7]. Moreover, the TGI in experiment [8], in experiment [9] and in experiment [10] was above 100 µM throughout.
`O=C(Nc1cc2c(=O)oc3ccccc3c2oc1=O)c1cccnc1`: the TGI in experiment [1], in [2], in [3], in experiment [4], in experiment [6] and in experiment [7] was above 100 µM in each case. Moreover, the TGI in experiment [8] and in experiment [10] was above 100 µM throughout.
Take `CC(=O)c1ccc2c(ccc(=O)n2C)c1`: the TGI in experiment [1], in experiment [2], in experiment [3], in [4], in experiment [5] and in experiment [7] was above 100 µM each time. The TGI in [8], in [9] and in experiment [10] was above 100 µM throughout.
Turning to `C=C1C(=O)OC2/C=C(/C)C3CC(O)C(C)(CC(OC(=O)/C(C)=C/C)C12)O3` (stereo not drawn), the TGI in experiment [1] was 4.4 µM; in experiment [2], 4.86 µM; in experiment [3], 18.3 µM; in experiment [4] it was 4.86 µM; in [5], above 22.4 µM; in experiment [7], 7.34 µM. Further, the TGI came out at 3.46 µM in experiment [8], 23.2 µM in experiment [9] and 20.6 µM in experiment [10].
In the case of `CCOC(=O)c1nc2ccccc2nc1Nc1ccc(OC)c(OC)c1`, the TGI in [2], in experiment [3], in experiment [4], in experiment [5], in experiment [6] and in experiment [11] was above 100 µM throughout. For the same molecule, the TGI in experiment [7] and in experiment [10] was above 100 µM throughout.
As to `C/C=C1/CN2CCC3(O)c4ccccc4N4C=C(C(=O)OC)C1CC2C43O` (stereo not drawn), the TGI in experiment [1], in experiment [2], in [3], in [4], in experiment [5] and in experiment [6] was above 100 µM in each case. In addition, the TGI in experiment [11], in experiment [8] and in [10] was above 100 µM in each case.
Turning to `O=C(NNC(c1ccccc1)C(F)(F)F)c1ccncc1` (stereo not drawn), the TGI in experiment [1], in experiment [2], in [3], in [4], in experiment [5] and in [6] was above 100 µM each time. The TGI in [7], in [8] and in [10] was above 100 µM each time.
Consider `NC(=O)NC(=O)c1cccc(CNc2ccc(C(=O)N[C@@H](CCC(=O)O)C(=O)O)cc2)n1`, for which the TGI in experiment [1], in [2], in experiment [3], in experiment [4], in [5] and in experiment [6] was above 100 µM each time. Besides, the TGI in experiment [11], in [7], in experiment [8] and in experiment [10] was above 100 µM each time.
As for `CC(C)(C)NC(=O)NC12CC3CC(CC(F)(C3)C1)C2`, the TGI in [1], in experiment [2], in experiment [3], in experiment [5], in experiment [7] and in experiment [8] was above 100 µM each time. Besides, in experiment [9], the TGI was above 100 µM.
As for `Clc1ccccc1C1=NN(c2ccccc2)C2c3ccccc3OCC12` (stereo not drawn), the TGI in experiment [1], in experiment [3], in experiment [5], in experiment [7], in [8] and in experiment [9] was above 100 µM throughout.
As for `Cc1ccc(S(=O)(=O)N2C[C@](O)(c3ccccc3)[C@H]2C)cc1`, the TGI in experiment [1], in experiment [2], in [3], in experiment [4], in experiment [6] and in experiment [11] was above 100 µM throughout. The TGI in experiment [7], in experiment [8], in experiment [9] and in experiment [10] was above 100 µM each time.
Regarding `CCN1C[C@]2(C)CC[C@H](OC)C34C1C([C@H](OC(C)=O)[C@@H]32)[C@@]1(OC)C[C@H](OC)[C@H]2C[C@@H]4[C@@H]1[C@H]2O`, the TGI in [1], in [2], in experiment [3], in [4], in [5] and in [7] was above 100 µM each time. In addition, the TGI in experiment [8], in experiment [9] and in experiment [10] was above 100 µM each time.
`CS(=O)(=O)c1c(N)c2nc(Cl)cn2c2nc3ccccc3nc12`: the TGI in experiment [1], in experiment [2], in experiment [4], in experiment [5], in experiment [7] and in experiment [8] was above 100 µM each time. In experiment [10], this molecule displayed a TGI above 100 µM.
